# Source: US20100173281A1, “HCV NS3 protease replicon shuttle vectors” (priority 2009, published 2010)
# Read-outs that look alike come from different tables or passages of the source.
# Assays:
# [1] = tested on: replicon shuttle vector pSC_1b_NS3/Protease_EcoRV_AsiSI in Lunet Huh7 cells; test: Phenotypic replicon assay (transient replicon, firefly luciferase reporter), control shuttle vector; type: cell-based, HCV; conditions: read-out: Mean IC50
# Method: Phenotypic Replicon Assay
# Five micrograms of DNA plasmids were linearized by Sca I restriction enzyme (Roche). After overnight digestion at 37° C., the DNA was purified using Qiagen PCR purification kit. One microgram of linearized DNA was used for the in vitro transcription using T7 RiboMAX Express (Promega) following manufacturer's protocol. After 2 hours of incubation at 37° C., DNase treatment was performed for 30 minutes at 37° C. to remove the DNA template. In vitro transcribed RNA was then purified using RNeasy spin column (Qiagen) following manufacturer's protocol.
# The hepatoma Lunet Huh-7 cell line were cultured at 37° C. in a humidified atmosphere with 5% CO2 in Dulbecco's Modified Eagle Medium (DMEM) supplemented with Glutamax™ and […] sodium pyruvate. The medium was further supplemented with 10% (v/v) FBS and 1% (v/v) penicillin/streptomycin. All reagents were from Invitrogen/Gibco.
# Four million Lunet Huh7 cells were transfected with 5 μg of in vitro transcribed RNA using electroporation. Cells were then resuspended in 7.2 ml of DMEM containing 5% FBS and plated in 96-well plate at 50000 cells/well (in 90 μl final volume). Inhibitors (when used) were added 24 hours post-transfection in 3 fold dilutions at a final DMSO concentration of 1% and firefly luciferase reporter signal was read 72 hours after addition of inhibitors using the Luciferase Assay system (Promega). The IC50 values were assessed as the inhibitor concentration at which a 50% reduction in the level of firefly luciferase reporter was observed as compared to the level of firefly luciferase signal without the addition of compounds.
# The replication capacity of the replicon shuttle vector, pSC—1b_NS3/Protease_EcoRV_AsiSI, as well as those of replicons that contain HCV genotype-1a and genotype-1b patient-derived NS3 protease domains were tested with the luciferase signal as the readout and the results are shown on FIG. 3. The inhibitory effects of the HCV protease inhibitors, BILN2061, VX-950 and NM107 were also tested on these replicons and the results are shown on Table 1.
# [2] = tested on: replicons that contain HCV genotype-1a patient-derived NS3 protease domains in Lunet Huh7 cells; test: Phenotypic replicon assay (transient replicon, firefly luciferase reporter), genotype-1a patient-derived NS3 protease; type: cell-based
# [3] = tested on: replicons that contain HCV genotype-1b patient-derived NS3 protease domains in Lunet Huh7 cells; test: Phenotypic replicon assay (transient replicon, firefly luciferase reporter), genotype-1b patient-derived NS3 protease; type: cell-based
# [4] = Hepatitis C virus, Huh-7, read-out: Mean IC50, GT-1a patient sample RO-191
# [5] = Hepatitis C virus, Huh-7, read-out: Mean IC50, GT-1a patient sample RO-192
# [6] = Hepatitis C virus, Huh-7, read-out: Mean IC50, GT-1a patient sample RO-193
# [7] = Hepatitis C virus, Huh-7, read-out: Mean IC50, GT-1a patient sample RO-194
# [8] = Hepatitis C virus, Huh-7, read-out: Mean IC50, GT-1a patient sample RO-195
# [9] = Hepatitis C virus, Huh-7, read-out: Mean IC50, GT-1a patient sample RO-207
# [10] = Hepatitis C virus, Huh-7, read-out: Mean IC50, GT-1b patient sample 206
# [11] = Hepatitis C virus, Huh-7, read-out: Mean IC50, GT-1b patient sample 301
# [12] = Hepatitis C virus, Huh-7, read-out: Mean IC50, GT-1b patient sample PC232
Compound,"IC50 ([1]; Hepatitis C virus, Huh-7, 72 h)","IC50 [2, 4]","IC50 [2, 5]","IC50 [2, 6]","IC50 [2, 7]","IC50 [2, 8]","IC50 [2, 9]","IC50 [3, 10]","IC50 [3, 11]","IC50 [3, 12]","IC50 ([1]; replicon control pSC_1b_NS3/Protease_EcoRV_AsiSI, luciferase read 72 hours after addition of inhibitors)","IC50 ([2]; GT-1a patient sample RO-191, read-out: Mean IC50)","IC50 ([2]; GT-1a patient sample RO-192, read-out: Mean IC50)","IC50 ([2]; GT-1a patient sample RO-193, read-out: Mean IC50)","IC50 ([2]; GT-1a patient sample RO-194, read-out: Mean IC50)","IC50 ([2]; GT-1a patient sample RO-195, read-out: Mean IC50)","IC50 ([2]; GT-1a patient sample RO-207, read-out: Mean IC50)","IC50 ([3]; GT-1b patient sample 206, read-out: Mean IC50)","IC50 ([3]; GT-1b patient sample 301, read-out: Mean IC50)","IC50 ([3]; GT-1b patient sample PC232, read-out: Mean IC50)"
CCC[C@H](NC(=O)[C@@H]1[C@H]2CCC[C@H]2CN1C(=O)[C@@H](NC(=O)[C@@H](NC(=O)c1cnccn1)C1CCCCC1)C(C)(C)C)C(=O)C(=O)NC1CC1 [VX-950],0.16 nM,0.057 nM,0.068 nM,0.132 nM,0.052 nM,0.028 nM,0.083 nM,0.175 nM,0.162 nM,0.166 nM,–,–,–,–,–,–,–,–,–,–
COc1ccc2c(O[C@@H]3C[C@H]4C(=O)N[C@]5(C(=O)O)C[C@H]5/C=C\CCCCC[C@H](NC(=O)OC5CCCC5)C(=O)N4C3)cc(-c3csc(NC(C)C)n3)nc2c1 [BILN2061],0.489 nM,0.798 nM,0.34 nM,0.298 nM,0.665 nM,0.629 nM,0.386 nM,0.643 nM,0.378 nM,0.468 nM,–,–,–,–,–,–,–,–,–,–
C[C@@]1(O)[C@H](O)[C@@H](CO)O[C@H]1n1ccc(N)nc1=O [NM107],–,–,–,–,–,–,–,–,–,–,283 nM,539 nM,554 nM,640 nM,509 nM,312 nM,1160 nM,279 nM,279 nM,449 nM
